Laboratory results taken from PubChem BioAssay AID743384 (Vanderbilt Specialized Chemistry Center, 2014).
Activity calls are given as the source filed them. The rule behind the calls is not given here.

Legend:
[1] = target: Metabotropic glutamate receptor 7 (Rattus norvegicus) (UniProt P35400); test: potentiation of glutamate EC20 at mGlu7 – cell-based, calcium mobilization, Galpha15, dose response (AID 743384); settings: mGlu7/Ga15, calcium fluorescence PAM; hits give high values
[2] = target: Metabotropic glutamate receptor 7 (Homo sapiens) (UniProt Q14831); test: as above; settings: mGlu7/Ga15, calcium fluorescence PAM
Metabotropic glutamate receptor 7 (Homo sapiens), sequence (Q14831 whole entry, looked up): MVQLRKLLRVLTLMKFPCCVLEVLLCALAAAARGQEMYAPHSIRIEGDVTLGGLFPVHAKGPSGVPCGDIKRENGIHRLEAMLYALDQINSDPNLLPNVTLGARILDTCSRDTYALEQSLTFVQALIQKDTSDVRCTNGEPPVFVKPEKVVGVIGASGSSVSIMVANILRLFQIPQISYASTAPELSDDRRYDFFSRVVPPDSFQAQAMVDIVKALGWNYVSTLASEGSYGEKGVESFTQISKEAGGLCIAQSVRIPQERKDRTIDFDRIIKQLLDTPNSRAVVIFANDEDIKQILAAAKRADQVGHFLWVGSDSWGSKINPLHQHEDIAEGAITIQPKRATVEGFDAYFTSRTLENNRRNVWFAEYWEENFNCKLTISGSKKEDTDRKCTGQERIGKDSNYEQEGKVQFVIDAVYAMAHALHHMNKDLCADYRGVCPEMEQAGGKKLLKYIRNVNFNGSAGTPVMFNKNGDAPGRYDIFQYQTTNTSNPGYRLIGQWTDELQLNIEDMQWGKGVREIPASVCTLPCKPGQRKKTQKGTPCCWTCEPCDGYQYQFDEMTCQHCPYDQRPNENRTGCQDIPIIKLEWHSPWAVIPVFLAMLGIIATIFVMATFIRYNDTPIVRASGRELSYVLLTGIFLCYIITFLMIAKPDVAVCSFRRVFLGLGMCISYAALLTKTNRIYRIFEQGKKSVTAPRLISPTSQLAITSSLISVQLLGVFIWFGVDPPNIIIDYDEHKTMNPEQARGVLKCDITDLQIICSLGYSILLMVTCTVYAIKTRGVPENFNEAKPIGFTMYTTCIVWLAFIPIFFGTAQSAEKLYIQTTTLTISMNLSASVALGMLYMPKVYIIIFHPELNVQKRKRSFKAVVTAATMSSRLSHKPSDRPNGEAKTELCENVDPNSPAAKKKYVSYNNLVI

Metabotropic glutamate receptor 7 (Rattus norvegicus), sequence (P35400 whole entry, looked up): as the sequence (Q14831 whole entry, looked up) above, with R5G, A27V, N454H, S488T, A520S, D578N counted along it

| Structure (SMILES) | % glutamate max response [1] | EC50 [2] [nM] |
| --- | --- | --- |
| CCOc1ccc(-n2c(C)cc(C(=O)CSc3ccc(OC)cc3)c2C)cc1 | inactive |  |
| COC(=O)c1ccc(-n2c(C)cc(C(=O)COc3cccc(N(C)C)c3)c2C)cc1 | inactive |  |
| COC(=O)c1ccc(-n2c(C)cc(C(=O)CSc3ccc(NC(C)=O)cc3)c2C)cc1 |  | 1500 |
| COC(=O)c1ccc(-n2c(C)cc(C(=O)CNc3ccc(C(=O)O)cc3)c2C)cc1 | inactive |  |
